# Source: publication PMC3553074 (PLoS ONE, 2013)
# Target: Ft-MglA/Ft-SspA complex (Francisella tularensis, UniProt Q5NFG1+Q5NHJ6)
# Sequence (Q5NFG1 1-205): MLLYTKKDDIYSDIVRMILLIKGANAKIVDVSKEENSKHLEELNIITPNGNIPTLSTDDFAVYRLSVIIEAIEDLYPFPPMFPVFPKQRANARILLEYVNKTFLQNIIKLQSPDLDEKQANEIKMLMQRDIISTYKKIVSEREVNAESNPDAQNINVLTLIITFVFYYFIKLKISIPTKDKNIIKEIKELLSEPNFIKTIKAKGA
# Sequence (Q5NHJ6 1-210): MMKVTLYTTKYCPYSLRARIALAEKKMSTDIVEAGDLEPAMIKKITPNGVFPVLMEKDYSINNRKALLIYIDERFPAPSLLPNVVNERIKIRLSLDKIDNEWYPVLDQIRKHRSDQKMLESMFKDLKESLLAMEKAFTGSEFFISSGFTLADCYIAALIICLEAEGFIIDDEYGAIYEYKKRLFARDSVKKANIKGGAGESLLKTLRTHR
compound,measurement,value
CCN(CC)CCCC(C)Nc1c2ccc(Cl)cc2nc2ccc(OC)cc12 (stereo not shown) [quinacrine],ΔTm (Tm1),24.0 °C
